Tests used:
[1] = system: durch Bradykinin erzeugte Blutdrucksenkung; details: Ratten; 3,0 µ g/kg Bradykinin i.v.; test substance 1,38juMol/kg i.v.
[2] = system: genetischen Hochdruckratte; details: genetische Hochdruckratte; 30 mg/kg p.o.

C[C@H](CSC(C[N+](=O)[O-])c1ccccc1)C(=O)N1CCC[C@H]1C(=O)O (stereo partly drawn) [Beispiel 1, 1-[3-(1-Phenyl-2-nitro-äthylthio)-2-D-methylpropanoyl]-L-prolin]
durch Bradykinin verursachte Blutdrucksenkung verstärkt um [1]: 142%
Blutdrucksenkung [2]: 19%
